The source of these data is patent publication US20230265151A1, “GIP/GLP1 CO-AGONIST COMPOUNDS” (priority 2020, published 2023).

Where two headings read alike, the source gives them in different places.

By Emax is commonly meant the maximal effect, on the per cent scale that the assay sets. By EC50 is commonly meant the midpoint of the concentration-response curve.

Common to all, as to format: cell-based
The target of one test is T1, hGIPR (Homo sapiens, UniProt P48546).
T1 construct: expressed in transfected cells
T1 sequence (P48546 22-466): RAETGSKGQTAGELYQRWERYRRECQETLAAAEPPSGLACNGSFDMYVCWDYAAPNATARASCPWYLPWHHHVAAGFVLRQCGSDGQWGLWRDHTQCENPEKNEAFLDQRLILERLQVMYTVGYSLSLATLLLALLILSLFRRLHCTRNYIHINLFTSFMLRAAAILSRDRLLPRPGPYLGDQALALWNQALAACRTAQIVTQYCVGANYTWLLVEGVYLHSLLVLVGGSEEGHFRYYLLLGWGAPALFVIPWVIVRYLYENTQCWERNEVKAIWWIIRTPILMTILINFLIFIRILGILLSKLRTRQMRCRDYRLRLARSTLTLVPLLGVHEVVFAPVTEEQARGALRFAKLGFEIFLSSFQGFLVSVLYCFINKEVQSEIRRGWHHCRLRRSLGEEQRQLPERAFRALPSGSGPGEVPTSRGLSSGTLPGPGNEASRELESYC
Put plainly: Functional cAMP formation (HTRF) in HEK-293 clonal cells expressing hGIPR, 0.1% bovine casein, without or with 1.0% human serum albumin. The following applies: for EC50: cAMP, 0.1% bovine casein (no human serum albumin), geometric mean. In a few lines:
(§1)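 Cells were stimulated with peptide for 30 min at 37° C, then lysed in buffer carrying cAMP-d2 and anti-cAMP Eu3+-cryptate for a competitive HTRF read after at least 60 min at room temperature. The 665/620 nm ratio was converted to nM cAMP against a standard curve.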
On the technique in general: cAMP levels reflect the balance of adenylyl cyclase and phosphodiesterase activity.

The next test deals with T2, hGCGR (Homo sapiens, UniProt P47871).
T2 construct: expressed in transfected cells
Nature of the test: Functional cAMP formation (HTRF) in HEK-293 clonal cells expressing hGCGR, 0.1% bovine casein, without or with 1.0% human serum albumin. In outline:
as §1

In a further test the target is hGLP-1R (Homo sapiens, UniProt P43220). Nature of the test: Functional cAMP formation (HTRF) in HEK-293 clonal cells expressing hGLP-1R, 0.1% bovine casein, without or with 1.0% human serum albumin. Also noted: expressed in transfected cells. In outline: as §1
The mark [1] stands for this setting: HEK293, 0.1% bovine casein and 1.0% human serum albumin, 37° C., percent of maximal response to GIP(1-42)NH2, read-out: hGIPR Emax, % ± SEM.
Setting [2] is: 0.1% bovine casein and 1.0% human serum albumin, 37° C., geometric mean, read-out: hGCGR EC50, nM (SEM, n).

T2 sequence (P47871 26-477): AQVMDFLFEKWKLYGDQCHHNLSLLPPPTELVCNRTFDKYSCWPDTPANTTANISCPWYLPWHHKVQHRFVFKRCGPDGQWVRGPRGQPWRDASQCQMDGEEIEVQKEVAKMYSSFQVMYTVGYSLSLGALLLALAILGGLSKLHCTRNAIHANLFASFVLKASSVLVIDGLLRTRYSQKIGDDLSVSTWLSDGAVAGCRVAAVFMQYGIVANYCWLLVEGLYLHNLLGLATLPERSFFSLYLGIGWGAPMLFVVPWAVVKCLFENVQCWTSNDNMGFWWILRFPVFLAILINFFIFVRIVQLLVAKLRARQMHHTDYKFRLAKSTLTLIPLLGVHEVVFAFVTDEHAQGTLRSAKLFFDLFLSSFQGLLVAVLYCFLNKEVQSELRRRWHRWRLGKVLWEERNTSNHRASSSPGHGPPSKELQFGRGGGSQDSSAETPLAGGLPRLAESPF
Sequence of hGLP-1R (P43220 24-463): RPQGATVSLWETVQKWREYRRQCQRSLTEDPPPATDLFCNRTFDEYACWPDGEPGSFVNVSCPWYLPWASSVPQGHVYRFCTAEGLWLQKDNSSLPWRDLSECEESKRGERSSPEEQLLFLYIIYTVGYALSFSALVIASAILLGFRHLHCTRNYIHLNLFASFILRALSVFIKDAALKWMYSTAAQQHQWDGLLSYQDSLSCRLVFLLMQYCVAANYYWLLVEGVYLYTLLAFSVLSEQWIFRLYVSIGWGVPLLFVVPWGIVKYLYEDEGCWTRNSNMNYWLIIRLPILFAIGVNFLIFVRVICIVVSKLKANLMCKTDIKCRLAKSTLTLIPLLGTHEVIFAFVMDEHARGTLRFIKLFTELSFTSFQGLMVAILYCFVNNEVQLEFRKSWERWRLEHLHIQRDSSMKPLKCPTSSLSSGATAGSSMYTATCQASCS

For `CC[C@H](C)[C@H](NC(=O)[C@H](CCCN)NC(=O)[C@H](CC(=O)O)NC(=O)[C@H](CC(C)C)NC(=O)[C@](C)(CC(C)C)NC(=O)[C@@H](NC(=O)[C@H](CO)NC(=O)[C@H](Cc1ccncc1)NC(=O)[C@H](CC(=O)O)NC(=O)[C@H](CO)NC(=O)[C@@H](NC(=O)[C@](C)(Cc1ccccc1F)NC(=O)[C@@H](NC(=O)CNC(=O)[C@H](CCC(=O)O)NC(=O)C(C)(C)NC(=O)[C@@H](N)Cc1ccc(O)cc1)[C@@H](C)O)[C@@H](C)O)[C@@H](C)CC)C(=O)N[C@@H](C)C(=O)N[C@@H](CCC(N)=O)C(=O)NC(C)(C)C(=O)N[C@@H](CCC(=O)O)C(=O)N[C@@H](Cc1ccccc1)C(=O)N[C@H](C(=O)N[C@@H](CCCCNC(=O)[C@@H](N)CCCCNC(=O)[C@@H](N)CCCCNC(=O)CC[C@H](NC(=O)CCCCCCCCCCCCC(=O)O)C(=O)O)C(=O)N[C@@](C)(Cc1ccc(O)cc1)C(=O)N[C@@H](CC(C)C)C(=O)N[C@H](C(=O)N[C@@H](CCC(=O)O)C(=O)NCC(=O)NCC(=O)N[C@@H](CCCCNC(=O)[C@@H](N)CCCCNC(=O)[C@@H](N)CCCCNC(=O)CC[C@H](NC(=O)CCCCCCCCCCCCC(=O)O)C(=O)O)C(=O)N[C@@H](CO)C(=O)N[C@@H](CO)C(=O)NCC(=O)N[C@@H](C)C(=O)N1CCC[C@H]1C(=O)N1CCC[C@H]1C(=O)N1CCC[C@H]1C(=O)N[C@@H](CO)C(N)=O)[C@@H](C)CC)[C@@H](C)CC` [Example 198], the Emax on hGIPR (setting [1]) is 83.1 ± 3.45%; on hGIPR (HEK293, percent of maximal response to GIP(1-42)NH2, 37° C., 0.1% bovine casein, arithmetic mean, read-out: hGIPR Emax, % ± SEM) it was 94 ± 1.17%. Moreover, the EC50 was 0.0269 nM on hGIPR (incubated at 37° C., read-out: hGIPR EC50, nM (SEM, n)); > 9950 nM on hGCGR (setting [2]); > 9950 nM at hGCGR (cAMP, incubated at 37° C., 0.1% bovine casein (no human serum albumin), geometric mean, read-out: hGCGR EC50, nM (SEM, n)); 14.5 nM on hGLP-1R (0.1% bovine casein and 1.0% human serum albumin, 37° C., geometric mean, read-out: hGLP-1R EC50, nM (SEM, n)); 0.362 nM on hGLP-1R (cAMP, incubated at 37° C., 0.1% bovine casein (no human serum albumin), geometric mean, read-out: hGLP-1R EC50, nM (SEM, n)).

In the case of `CC[C@H](C)[C@H](NC(=O)[C@H](CC(C)C)NC(=O)[C@](C)(Cc1ccc(O)cc1)NC(=O)[C@H](CCCCNC(=O)CCOCCOCCOCCOCCOCCNC(=O)CC[C@H](NC(=O)CCCCCCCCCOc1ccc(C(=O)O)cc1)C(=O)O)NC(=O)[C@@H](NC(=O)[C@H](Cc1ccccc1)NC(=O)[C@H](CCCN)NC(=O)C(C)(C)NC(=O)[C@H](CCC(N)=O)NC(=O)[C@H](C)NC(=O)[C@H](CCC(N)=O)NC(=O)[C@H](CCCN)NC(=O)[C@H](CC(=O)O)NC(=O)[C@H](CC(C)C)NC(=O)[C@](C)(CC(C)C)NC(=O)[C@@H](NC(=O)C(C)(C)NC(=O)[C@H](Cc1ccncc1)NC(=O)[C@H](CC(=O)O)NC(=O)[C@H](CO)NC(=O)[C@@H](NC(=O)[C@](C)(Cc1ccccc1F)NC(=O)[C@@H](NC(=O)CNC(=O)[C@H](CCC(=O)O)NC(=O)C(C)(C)NC(=O)[C@@H](N)Cc1ccc(O)cc1)[C@@H](C)O)[C@@H](C)O)[C@@H](C)CC)[C@@H](C)CC)C(=O)N[C@@H](CCCCNC(=O)CCOCCOCCOCCOCCOCCNC(=O)CC[C@H](NC(=O)CCCCCCCCCOc1ccc(C(=O)O)cc1)C(=O)O)C(=O)NCC(=O)NCC(=O)N1CCC[C@H]1C(=O)N[C@@H](CO)C(=O)N[C@@H](CO)C(=O)NCC(=O)N[C@@H](C)C(=O)N1CCC[C@H]1C(=O)N1CCC[C@H]1C(=O)N1CCC[C@H]1C(=O)N[C@@H](CO)C(N)=O` [Example 469], the Emax on hGIPR (HEK293, read-out: hGIPR Emax, % ± SEM, cAMP, 37° C., 0.1% bovine casein and 1.0% human serum albumin, percent of maximal response to GIP(1-42)NH2) turned out to be 82.1%; at hGLP-1R (HEK293, read-out: hGLP-1R Emax, % ± SEM, cAMP, 37° C., 0.1% bovine casein and 1.0% human serum albumin, percent of maximal response to GLP-1(7-36)NH2), 93.8%; on hGLP-1R (HEK293, read-out: hGLP-1R Emax, % ± SEM, cAMP, 37° C., 0.1% bovine casein, percent of maximal response to GLP-1(7-36)NH2, arithmetic mean), 111%. For the same compound, the EC50 at hGIPR (hGIPR EC50, nM (SEM, n), 37° C.) was 0.0121 nM; at hGCGR (hGCGR EC50, nM (SEM, n), cAMP, 37° C., 0.1% bovine casein (no human serum albumin), geometric mean) it was > 9950 nM; at hGCGR (hGCGR EC50, nM (SEM, n), cAMP, 37° C., 0.1% bovine casein and 1.0% human serum albumin, geometric mean (SEM, n)), > 9950 nM; at hGLP-1R (hGLP-1R EC50, nM (SEM, n), cAMP, 37° C., 0.1% bovine casein (no human serum albumin), geometric mean), 0.161 nM; at hGLP-1R (hGLP-1R EC50, nM (SEM, n), cAMP, 37° C., 0.1% bovine casein and 1.0% human serum albumin, geometric mean (SEM, n)), 2.33 nM.

For the compound `CC[C@H](C)[C@H](NC(=O)[C@H](CC(C)C)NC(=O)[C@](C)(Cc1ccc(O)cc1)NC(=O)[C@@H](CCC(=O)O)NC(=O)[C@@H](NC(=O)[C@H](Cc1ccccc1)NC(=O)[C@H](CCC(=O)O)NC(=O)C(C)(C)NC(=O)[C@H](CCC(N)=O)NC(=O)[C@H](C)NC(=O)[C@H](CCCCNC(=O)COCCOCCNC(=O)COCCOCCNC(=O)CC[C@H](NC(=O)CCCCCCCCCCCCC(=O)O)C(=O)O)NC(=O)[C@H](CCCN)NC(=O)[C@H](CC(=O)O)NC(=O)[C@H](CC(C)C)NC(=O)[C@](C)(CC(C)C)NC(=O)[C@@H](NC(=O)[C@H](CO)NC(=O)[C@H](Cc1ccc2ccccc2c1)NC(=O)[C@H](CC(=O)O)NC(=O)[C@H](CO)NC(=O)[C@@H](NC(=O)[C@](C)(Cc1ccccc1F)NC(=O)[C@@H](NC(=O)CNC(=O)[C@H](CCC(=O)O)NC(=O)C(C)(C)NC(=O)[C@@H](N)Cc1ccc(O)cc1)[C@@H](C)O)[C@@H](C)O)[C@@H](C)CC)[C@@H](C)CC)C(=O)N[C@@H](CCC(=O)O)C(=O)NCC(=O)NCC(=O)N1CCC[C@H]1C(=O)N[C@@H](CO)C(=O)N[C@@H](CO)C(=O)NCC(=O)N[C@@H](C)C(=O)N1CCC[C@H]1C(=O)N1CCC[C@H]1C(=O)N1CCC[C@H]1C(=O)N[C@@H](CO)C(=O)N[C@@H](CCCCNC(=O)COCCOCCNC(=O)COCCOCCNC(=O)CC[C@H](NC(=O)CCCCCCCCCCCCC(=O)O)C(=O)O)C(N)=O` [Example 251], the Emax on hGIPR (setting [1]) came to 71.2%; at hGLP-1R (HEK293, cAMP, 37° C., 0.1% bovine casein, percent of maximal response to GLP-1(7-36)NH2, arithmetic mean, read-out: hGLP-1R Emax, % ± SEM), 99%. Also, the EC50 at hGIPR (37° C., read-out: hGIPR EC50, nM (SEM, n)) was 0.0305 nM; on hGCGR (setting [2]), > 9950 nM; on hGCGR (cAMP, 37° C., 0.1% bovine casein (no human serum albumin), geometric mean, read-out: hGCGR EC50, nM (SEM, n)) it was > 9950 nM; on hGLP-1R (cAMP, 37° C., 0.1% bovine casein (no human serum albumin), geometric mean, read-out: hGLP-1R EC50, nM (SEM, n)), 0.338 nM.

`CC[C@H](C)[C@H](NC(=O)[C@H](CCCN)NC(=O)[C@H](CC(=O)O)NC(=O)[C@H](CC(C)C)NC(=O)[C@](C)(CC(C)C)NC(=O)[C@@H](NC(=O)[C@H](CO)NC(=O)[C@H](CCCCNC(=O)COCCOCCNC(=O)COCCOCCNC(=O)CC[C@H](NC(=O)CCCCCCCCCCCCC(=O)O)C(=O)O)NC(=O)[C@H](CC(=O)O)NC(=O)[C@H](CO)NC(=O)[C@@H](NC(=O)[C@](C)(Cc1ccccc1F)NC(=O)[C@@H](NC(=O)CNC(=O)[C@H](CCC(=O)O)NC(=O)C(C)(C)NC(=O)[C@@H](N)Cc1ccc(O)cc1)[C@@H](C)O)[C@@H](C)O)[C@@H](C)CC)C(=O)N[C@@H](C)C(=O)N[C@@H](CCC(N)=O)C(=O)NC(C)(C)C(=O)N[C@@H](CCC(=O)O)C(=O)N[C@@](C)(Cc1ccccc1)C(=O)N[C@H](C(=O)N[C@@H](CCCCNC(=O)COCCOCCNC(=O)COCCOCCNC(=O)CC[C@H](NC(=O)CCCCCCCCCCCCC(=O)O)C(=O)O)C(=O)N[C@@](C)(Cc1ccc(O)cc1)C(=O)N[C@@H](CC(C)C)C(=O)N[C@H](C(=O)N[C@@H](CCC(=O)O)C(=O)NCC(=O)NCC(=O)N1CCC[C@H]1C(=O)N[C@@H](CO)C(=O)N[C@@H](CO)C(=O)NCC(=O)N[C@@H](C)C(=O)N1CCC[C@H]1C(=O)N1CCC[C@H]1C(=O)N1CCC[C@H]1C(=O)N[C@@H](CO)C(N)=O)[C@@H](C)CC)[C@@H](C)CC` [Example 110]: the EC50 was 0.0417 nM on hGIPR (hGIPR EC50, nM (SEM, n), incubated at 37° C.); > 9950 nM on hGCGR (hGCGR EC50, nM (SEM, n), cAMP, incubated at 37° C., 0.1% bovine casein (no human serum albumin), geometric mean); 1.43 nM at hGLP-1R (hGLP-1R EC50, nM (SEM, n), cAMP, incubated at 37° C., 0.1% bovine casein (no human serum albumin), geometric mean). Besides, the Emax on hGLP-1R (HEK293, read-out: hGLP-1R Emax, % ± SEM, percent of maximal response to GLP-1(7-36)NH2, 37° C., 0.1% bovine casein, arithmetic mean) was determined as 98.8%.
